Patent publication US9802937B2, “Substituted pyrazolo{4,3-D}pyrimidines as kinase inhibitors” (ORIGENIS GMBH, priority 2011, dated 2017)

Columns and labels:
SYK kinase = biological target: T1, SYK kinase (Homo sapiens, UniProt P43405); assay: SYK Assay (OMNIA KINASE ASSAY, SOX peptide fluorescence); type: biochemical; conditions: apparent Ki calculated from the IC50 using the Cheng-Prusoff equation; 1 mM ATP, 30° C.; read-out: SYK Activities: Ki
T1 construct: purchased Invitrogen, Carlsbad
Method in brief: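 Continuous Omnia assay: SYK phosphorylation of SOX-labelled Tyr 7 peptide (10 µM) with 1 mM ATP and 0.2 mM DTT at 30 °C. Fluorescence (ex 360/em 485 nm) read every 30 s for 30 min. Reaction velocity versus inhibitor concentration gives IC50, converted to apparent Ki by Cheng-Prusoff.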

LRRK2 = LRRK2 (Homo sapiens, UniProt Q5S007); assay: LRRK2-LRRK2 G2019S-Assay (LanthaScreen Eu Kinase Binding Assay); conditions: 5 nM LRRK2 or their mutants, 10 nM tracer 236, RT 1 h; read-out: LRRK2 Activities: IC50
LRRK2, sequence (Q5S007 970-2527 limits assumed): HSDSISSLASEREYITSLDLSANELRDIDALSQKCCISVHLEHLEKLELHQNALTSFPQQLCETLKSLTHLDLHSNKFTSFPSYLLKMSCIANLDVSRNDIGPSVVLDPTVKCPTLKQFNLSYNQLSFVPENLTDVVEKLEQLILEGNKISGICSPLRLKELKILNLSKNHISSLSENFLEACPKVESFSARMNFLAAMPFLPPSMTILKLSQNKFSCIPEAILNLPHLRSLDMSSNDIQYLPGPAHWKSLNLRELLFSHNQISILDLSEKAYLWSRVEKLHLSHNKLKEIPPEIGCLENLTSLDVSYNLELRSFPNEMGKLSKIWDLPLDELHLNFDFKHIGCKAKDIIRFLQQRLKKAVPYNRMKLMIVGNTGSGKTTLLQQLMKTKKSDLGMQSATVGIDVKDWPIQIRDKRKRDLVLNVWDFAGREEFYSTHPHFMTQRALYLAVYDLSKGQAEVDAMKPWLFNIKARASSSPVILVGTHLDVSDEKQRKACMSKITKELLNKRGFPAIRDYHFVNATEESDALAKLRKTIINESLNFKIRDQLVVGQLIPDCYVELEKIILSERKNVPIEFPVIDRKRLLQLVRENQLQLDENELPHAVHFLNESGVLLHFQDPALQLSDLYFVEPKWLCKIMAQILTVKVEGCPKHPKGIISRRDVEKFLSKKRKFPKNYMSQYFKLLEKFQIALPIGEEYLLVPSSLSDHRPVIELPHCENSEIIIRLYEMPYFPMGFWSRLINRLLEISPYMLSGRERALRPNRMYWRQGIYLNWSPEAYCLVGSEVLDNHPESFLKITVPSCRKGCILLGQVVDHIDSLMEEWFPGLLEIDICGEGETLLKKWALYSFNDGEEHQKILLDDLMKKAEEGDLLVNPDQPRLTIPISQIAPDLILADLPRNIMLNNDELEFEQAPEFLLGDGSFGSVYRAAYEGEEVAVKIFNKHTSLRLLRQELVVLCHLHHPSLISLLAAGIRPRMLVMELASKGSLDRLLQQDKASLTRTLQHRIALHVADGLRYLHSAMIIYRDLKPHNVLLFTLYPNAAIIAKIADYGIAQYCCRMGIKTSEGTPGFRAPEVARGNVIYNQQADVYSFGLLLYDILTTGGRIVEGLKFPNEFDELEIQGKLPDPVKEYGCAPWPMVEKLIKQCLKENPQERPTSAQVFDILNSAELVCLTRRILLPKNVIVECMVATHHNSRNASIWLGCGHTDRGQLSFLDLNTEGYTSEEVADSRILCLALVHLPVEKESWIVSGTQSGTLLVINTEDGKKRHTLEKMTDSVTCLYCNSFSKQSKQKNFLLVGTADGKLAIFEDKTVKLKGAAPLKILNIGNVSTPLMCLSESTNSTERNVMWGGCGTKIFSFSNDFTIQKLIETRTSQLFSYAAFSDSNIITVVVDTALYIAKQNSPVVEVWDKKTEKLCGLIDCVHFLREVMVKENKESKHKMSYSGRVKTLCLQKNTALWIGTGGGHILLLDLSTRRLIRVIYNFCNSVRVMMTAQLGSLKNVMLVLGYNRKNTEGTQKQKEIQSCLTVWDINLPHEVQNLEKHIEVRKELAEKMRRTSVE
Description: In the assay LanthaScreen™ Eu Kinase Binding Assay by Invitrogen Corporation (Carlsbad) the effect of invention of a compound on the phosphorylation is determined by measurement of fluorescence intensity emission ratio based on the binding and displacement of a proprietary, Alexa Fluor® 647-labeled, ATP-competitive kinase inhibitor scaffold (kinase tracer) to the kinase of interest. Binding of the tracer to the kinase is detected using a europium-labeled anti-tag antibody, which binds to the kinase of interest. Simultaneous binding of both the tracer and antibody to the kinase results in a high degree of FRET (fluorescence resonance energy transfer) from the europium (Eu) donor fluorophore to the Alexa Fluor® 647 acceptor fluorophore on the kinase tracer. Binding of an inhibitor to the kinase competes for binding with the tracer, resulting in a loss of FRET. The fluorescence intensity ratio is directly proportional to the amount of peptide phosphorylation.
To the wells of an 384 well small volume plate (Greiner, Frickenhausen) are added (i) the compound under test in 5% DMSO/distilled water (5 μl), (ii) 5 μl of the kinase antibody mixture resulting in a final concentration 5 nM LRRK2 or their mutants, 2 nM EU-Anti-GST antibody in 1× kinase buffer A. The reaction was started with addition of (iii) 5 μl resulting in a final concentration of 10 nM tracer 236. The assay plate was incubated at RT for 1 h and fluorescence intensitiy readings were collected using a TECAN M1000 at two wavelengthes of λex 340/λem 615 nm and λex 340/λm 665 nm with a delay time of 100 μs and an integration time of 200 μs after 60 minutes. The emission ratio was calculated by division of the acceptor/tracer emission ([…]) by the antibody/donor emission ([…]). The inhibitor concentration was plotted versus the emission ratio to determine the IC50 using XLFit 5.0 (IDBS, Guildford) to fit to a sigmoidal dose response curve with a variable slope.

## c1ccc(-c2nc(Nc3ccc4[nH]ncc4c3)c3[nH]ncc3n2)cc1 [Example #1, N-(1H-indazol-5-yl)-5-phenyl-1H-pyrazolo[4,3-d]pyrimidin-7-amine]
SYK kinase
  Ki: < 10 nM
LRRK2
  IC50: 100 to 1000 nM

## c1ccc(-c2nc(Nc3ccc4[nH]nnc4c3)c3[nH]ncc3n2)cc1 [Example #2, N-(1H-benzo[d][1,2,3]triazol-5-yl)-5-phenyl-1H-pyrazolo[4,3-d]pyrimidin-7-amine]
SYK kinase
  Ki: < 10 nM
LRRK2
  IC50: 100 to 1000 nM

## CN(C)c1ccc(Nc2nc(-c3ccccc3)nc3cn[nH]c23)cc1 [Example #4, N1,N1-dimethyl-N4-(5-phenyl-1H-pyrazolo[4,3-d]pyrimidin-7-yl)benzene-1,4-diamine]
SYK kinase
  Ki: < 10 nM
LRRK2
  IC50: 100 to 1000 nM

## COc1ccc(Nc2nc(-c3ccccc3)nc3cn[nH]c23)cc1OC [Example #6, N-(3,4-dimethoxyphenyl)-5-phenyl-1H-pyrazolo[4,3-d]pyrimidin-7-amine]
SYK kinase
  Ki: < 10 nM
LRRK2
  IC50: 100 to 1000 nM

## c1ccc(-c2nc(Nc3ccc(N4CCOCC4)cc3)c3[nH]ncc3n2)cc1 [Example #7, N-(4-morpholinophenyl)-5-phenyl-1H-pyrazolo[4,3-d]pyrimidin-7-amine]
SYK kinase
  Ki: < 10 nM
LRRK2
  IC50: 100 to 1000 nM

## Cc1nc2cc(Nc3nc(-c4ccccc4)nc4cn[nH]c34)ccc2[nH]1 [Example #9, N-(2-methyl-1H-benzo[d]imidazol-5-yl)-5-phenyl-1H-pyrazolo[4,3-d]pyrimidin-7-amine]
SYK kinase
  Ki: 10 to 100 nM
LRRK2
  IC50: 100 to 1000 nM

## O=C(O)c1ccc(Nc2nc(-c3ccccc3)nc3cn[nH]c23)cc1 [Example #10, 4-((5-phenyl-1H-pyrazolo[4,3-d]pyrimidin-7-yl)amino)benzoic-acid]
SYK kinase
  Ki: < 10 nM
LRRK2
  IC50: 100 to 1000 nM

## c1cc2[nH]ncc2cc1Nc1nc(-c2ccc(N3CCCC3)nc2)nc2cn[nH]c12 [Example #14, N-(1H-indazol-5-yl)-5-(6-(pyrrolidin-1-yl)pyridin-3-yl)-1H-pyrazolo[4,3-d]pyrimidin-7-amine]
SYK kinase
  Ki: 10 to 100 nM
LRRK2
  IC50: 100 to 1000 nM

## c1cc(-c2nc(Nc3ccc4cn[nH]c4c3)c3[nH]ncc3n2)ccn1 [Example #16, N-(1H-indazol-6-yl)-5-(pyridin-4-yl)-1H-pyrazolo[4,3-d]pyrimidin-7-amine]
SYK kinase
  Ki: < 10 nM
LRRK2
  IC50: 100 to 1000 nM

## CN(C)c1ccc(Nc2nc(-c3ccncc3)nc3cn[nH]c23)cc1 [Example #17, N1,N1-dimethyl-N4-(5-(pyridin-4-yl)-1H-pyrazolo[4,3-d]pyrimidin-7-yl)benzene-1,4-diamine]
SYK kinase
  Ki: 10 to 100 nM
LRRK2
  IC50: 100 to 1000 nM

## COc1ccc(Nc2nc(-c3ccncc3)nc3cn[nH]c23)cc1OC [Example #18, N-(3,4-dimethoxyphenyl)-5-(pyridin-4-yl)-1H-pyrazolo[4,3-d]pyrimidin-7-amine]
SYK kinase
  Ki: 10 to 100 nM
LRRK2
  IC50: 100 to 1000 nM

## COc1ccc(-c2nc(Nc3ccc4cn[nH]c4c3)c3[nH]ncc3n2)cc1OC [Example #22, 5-(3,4-dimethoxyphenyl)-N-(1H-indazol-6-yl)-1H-pyrazolo[4,3-d]pyrimidin-7-amine]
SYK kinase
  Ki: 10 to 100 nM
LRRK2
  IC50: 100 to 1000 nM

## COc1ccc(-c2nc(Nc3ccc(N(C)C)cc3)c3[nH]ncc3n2)cc1OC [Example #23, N1-(5-(3,4-dimethoxyphenyl)-1H-pyrazolo[4,3-d]pyrimidin-7-yl)-N4,N4-dimethylbenzene-1,4-diamine]
SYK kinase
  Ki: < 10 nM
LRRK2
  IC50: 10 to 100 nM

## COc1ccc(Nc2nc(-c3ccc(OC)c(OC)c3)nc3cn[nH]c23)cc1OC [Example #24, N,5-bis(3,4-dimethoxyphenyl)-1H-pyrazolo[4,3-d]pyrimidin-7-amine]
SYK kinase
  Ki: 10 to 100 nM
LRRK2
  IC50: 100 to 1000 nM

## COc1ccc(-c2nc(Nc3ccc(N4CCOCC4)cc3)c3[nH]ncc3n2)cc1OC [Example #25, 5-(3,4-dimethoxyphenyl)-N-(4-morpholinophenyl)-1H-pyrazolo[4,3-d]pyrimidin-7-amine]
SYK kinase
  Ki: < 10 nM
LRRK2
  IC50: 100 to 1000 nM

## COc1ccc(-c2nc(Nc3ccc4c(c3)NC(=O)CO4)c3[nH]ncc3n2)cc1OC [Example #26, 6-((5-(3,4-dimethoxyphenyl)-1H-pyrazolo[4,3-d]pyrimidin-7-yl)amino)-2H-benzo[b][1,4]oxazin-3(4H)-one]
SYK kinase
  Ki: 10 to 100 nM
LRRK2
  IC50: 10 to 100 nM

## CN1CCC(c2nc(Nc3ccc4cn[nH]c4c3)c3[nH]ncc3n2)CC1 [Example #27, N-(1H-indazol-6-yl)-5-(1-methylpiperidin-4-yl)-1H-pyrazolo[4,3-d]pyrimidin-7-amine]
SYK kinase
  Ki: 10 to 100 nM
LRRK2
  IC50: 100 to 1000 nM

## CN1CCC(c2nc(Nc3ccc(N(C)C)cc3)c3[nH]ncc3n2)CC1 [Example #28, N1,N1-dimethyl-N4-(5-(1-methylpiperidin-4-yl)-1H-pyrazolo[4,3-d]pyrimidin-7-yl)benzene-1,4-diamine]
SYK kinase
  Ki: 10 to 100 nM
LRRK2
  IC50: 100 to 1000 nM

## COc1ccc(Nc2nc(-c3ccc(N4CCCC4)nc3)nc3cn[nH]c23)cc1OC [Example #32, N-(3,4-dimethoxyphenyl)-5-(6-(pyrrolidin-1-yl)pyridin-3-yl)-1H-pyrazolo[4,3-d]pyrimidin-7-amine]
SYK kinase
  Ki: 10 to 100 nM
LRRK2
  IC50: 100 to 1000 nM

## c1cc(N2CCOCC2)ccc1Nc1nc(-c2ccc(N3CCCC3)nc2)nc2cn[nH]c12 [Example #33, N-(4-morpholinophenyl)-5-(6-(pyrrolidin-1-yl)pyridin-3-yl)-1H-pyrazolo[4,3-d]pyrimidin-7-amine]
SYK kinase
  Ki: < 10 nM
LRRK2
  IC50: 100 to 1000 nM

## COc1ccc(-c2nc(Nc3cc[nH]n3)c3[nH]ncc3n2)cc1OC [Example #41, 5-(3,4-dimethoxyphenyl)-N-(1H-pyrazol-3-yl)-1H-pyrazolo[4,3-d]pyrimidin-7-amine]
LRRK2
  IC50: 100 to 1000 nM

## O=S(=O)(NC1CC1)c1cccc(Nc2nc(-c3cccs3)nc3cn[nH]c23)c1 [Example #261, N-cyclopropyl-3-((5-(thiophen-2-yl)-1H-pyrazolo[4,3-d]pyrimidin-7-yl)amino)benzenesulfonamide]
LRRK2
  IC50: 100 to 1000 nM

## COc1ccc(Nc2nc(-c3ccc(F)cc3F)nc3cn[nH]c23)cc1OC [Example #285, 5-(2,4-difluorophenyl)-N-(3,4-dimethoxyphenyl)-1H-pyrazolo[4,3-d]pyrimidin-7-amine]
SYK kinase
  Ki: < 10 nM

## O=C1CCc2ccc(Nc3nc(-c4ccc5c(c4)NC(=O)CO5)nc4cn[nH]c34)cc2N1 [Example #287, 6-(7-((2-oxo-1,2,3,4-tetrahydroquinolin-7-yl)amino)-1H-pyrazolo[4,3-d]pyrimidin-5-yl)-2H-benzo[b][1,4]oxazin-3(4H)-one]
SYK kinase
  Ki: 10 to 100 nM

## CS(=O)(=O)c1ccccc1Nc1nc(-c2cccs2)nc2cn[nH]c12 [Example #291, N-(2-(methylsulfonyl)phenyl)-5-(thiophen-2-yl)-1H-pyrazolo[4,3-d]pyrimidin-7-amine]
SYK kinase
  Ki: 10 to 100 nM

## CN(C)Cc1cccc(Nc2nc(-c3cccs3)nc3cn[nH]c23)c1 [Example #292, N-(3-((dimethylamino)methyl)phenyl)-5-(thiophen-2-yl)-1H-pyrazolo[4,3-d]pyrimidin-7-amine]
SYK kinase
  Ki: 100 to 1000 nM

## CC(=O)N1CCN(c2ccc(Nc3nc(-c4ccc5c(c4)NC(=O)CO5)nc4cn[nH]c34)cc2)CC1 [Example #298, 6-(7-((4-(4-acetylpiperazin-1-yl)phenyl)amino)-1H-pyrazolo[4,3-d]pyrimidin-5-yl)-2H-benzo[b][1,4]oxazin-3(4H)-one]
SYK kinase
  Ki: < 10 nM

## COc1ccc(Nc2nc(-c3ccc4c(c3)NC(=O)CO4)nc3cn[nH]c23)cc1OC [Example #299, 6-(7-((3,4-dimethoxyphenyl)amino)-1H-pyrazolo[4,3-d]pyrimidin-5-yl)-2H-benzo[b][1,4]oxazin-3(4H)-one]
SYK kinase
  Ki: 10 to 100 nM

## CC(C)(C)c1cccc(Nc2nc(-c3cccs3)nc3cn[nH]c23)c1 [Example #305, N-(3-(tert-butyl)phenyl)-5-(thiophen-2-yl)-1H-pyrazolo[4,3-d]pyrimidin-7-amine]
SYK kinase
  Ki: 100 to 1000 nM

## COC(=O)c1cccc(-c2nc(Nc3ccc4cn[nH]c4c3)c3[nH]ncc3n2)c1 [Example #307, methyl 3-(7-((1H-indazol-6-yl)amino)-1H-pyrazolo[4,3-d]pyrimidin-5-yl)benzoate]
SYK kinase
  Ki: 100 to 1000 nM

## CN(C)Cc1ccc(Nc2nc(-c3cccc(N)c3)nc3cn[nH]c23)cc1 [Example #309, 5-(3-aminophenyl)-N-(4-((dimethylamino)methyl)phenyl)-1H-pyrazolo[4,3-d]pyrimidin-7-amine]
SYK kinase
  Ki: 10 to 100 nM

## CN(C)Cc1cccc(Nc2nc(-c3ccccc3F)nc3cn[nH]c23)c1 [Example #312, N-(3-((dimethylamino)methyl)phenyl)-5-(2-fluorophenyl)-1H-pyrazolo[4,3-d]pyrimidin-7-amine]
SYK kinase
  Ki: 100 to 1000 nM
